pIC50: −log10 of the molar value.
Assays:
TYRO3 = molecular target: T1, TYRO3 (Homo sapiens, UniProt Q06418); test: TR-FRET kinase activity assay, TYRO3; assay type: biochemical; settings: ATP at Km, 60 minutes
T1 sequence (Q06418 41-890): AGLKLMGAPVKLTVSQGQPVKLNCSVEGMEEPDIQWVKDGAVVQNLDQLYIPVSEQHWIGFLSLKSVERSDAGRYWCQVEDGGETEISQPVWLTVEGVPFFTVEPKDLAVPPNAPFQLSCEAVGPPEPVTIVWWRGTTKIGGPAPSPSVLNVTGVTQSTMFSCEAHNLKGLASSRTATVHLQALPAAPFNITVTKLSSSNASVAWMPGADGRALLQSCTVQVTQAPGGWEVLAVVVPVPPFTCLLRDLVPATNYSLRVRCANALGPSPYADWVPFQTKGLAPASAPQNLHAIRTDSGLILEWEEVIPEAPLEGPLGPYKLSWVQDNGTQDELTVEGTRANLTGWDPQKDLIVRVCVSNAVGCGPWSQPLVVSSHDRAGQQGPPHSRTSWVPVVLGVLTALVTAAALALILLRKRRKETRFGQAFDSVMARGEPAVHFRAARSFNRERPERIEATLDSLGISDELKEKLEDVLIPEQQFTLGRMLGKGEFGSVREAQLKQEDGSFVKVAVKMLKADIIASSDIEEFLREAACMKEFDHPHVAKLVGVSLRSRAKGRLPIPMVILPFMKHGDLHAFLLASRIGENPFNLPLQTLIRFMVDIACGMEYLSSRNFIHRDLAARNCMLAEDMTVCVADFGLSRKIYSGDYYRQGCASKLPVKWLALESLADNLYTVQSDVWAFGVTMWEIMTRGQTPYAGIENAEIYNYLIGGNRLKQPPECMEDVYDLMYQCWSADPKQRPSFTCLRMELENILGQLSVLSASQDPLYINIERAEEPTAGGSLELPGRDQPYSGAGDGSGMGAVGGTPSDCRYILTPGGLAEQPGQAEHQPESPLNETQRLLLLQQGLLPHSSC
Procedure, shortened: (§1)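 Buffer 50 mM HEPES pH 7.5/10 mM MgCl2/1 mM EGTA/0.01% Brij 35/1 mM DTT, RT. Km ATP per kinase, labeled peptide, 60 min; 12.5 mM EDTA stop; Eu-Ab 30 min dark; TR-FRET → IC50.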

MERTK = molecular target: T2, MERTK (Homo sapiens, UniProt Q12866); test: TR-FRET kinase activity assay, MERTK; assay type: biochemical; settings: for pIC50: TR-FRET activity assay, ATP at Km, 60 minutes, read-out: Mer IC50; for Mer/Flt3 ratio (FLT3 IC50/Mer IC50): ratio calculated as FLT3 IC50/Mer IC50
T2 sequence (Q12866 21-999): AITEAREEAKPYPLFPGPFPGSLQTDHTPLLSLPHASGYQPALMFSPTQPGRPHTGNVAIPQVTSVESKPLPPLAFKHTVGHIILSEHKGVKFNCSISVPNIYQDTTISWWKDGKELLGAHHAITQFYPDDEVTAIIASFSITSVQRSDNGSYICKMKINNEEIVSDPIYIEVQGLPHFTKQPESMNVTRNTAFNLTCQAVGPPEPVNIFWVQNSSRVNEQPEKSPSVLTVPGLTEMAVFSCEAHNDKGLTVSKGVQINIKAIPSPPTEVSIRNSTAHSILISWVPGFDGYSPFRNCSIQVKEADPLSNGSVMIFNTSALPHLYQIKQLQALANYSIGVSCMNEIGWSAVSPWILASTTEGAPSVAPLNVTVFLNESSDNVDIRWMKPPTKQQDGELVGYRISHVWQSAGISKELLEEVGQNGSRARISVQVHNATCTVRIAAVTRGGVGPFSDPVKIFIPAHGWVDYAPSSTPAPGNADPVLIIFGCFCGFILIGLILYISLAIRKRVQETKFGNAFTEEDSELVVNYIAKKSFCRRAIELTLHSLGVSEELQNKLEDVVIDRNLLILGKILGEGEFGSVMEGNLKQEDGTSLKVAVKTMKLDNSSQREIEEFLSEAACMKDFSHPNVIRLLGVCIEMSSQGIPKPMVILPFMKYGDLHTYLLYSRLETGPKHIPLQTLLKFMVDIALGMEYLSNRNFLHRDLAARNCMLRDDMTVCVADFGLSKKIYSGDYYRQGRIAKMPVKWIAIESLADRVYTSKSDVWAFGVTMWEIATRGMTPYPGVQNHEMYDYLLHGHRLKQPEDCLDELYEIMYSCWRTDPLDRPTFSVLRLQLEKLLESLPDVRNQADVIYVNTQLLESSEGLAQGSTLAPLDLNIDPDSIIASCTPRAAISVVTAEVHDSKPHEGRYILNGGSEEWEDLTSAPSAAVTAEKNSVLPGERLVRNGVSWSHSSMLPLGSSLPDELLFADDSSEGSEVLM
Procedure, shortened: as §1

SMILES	pIC50 (TYRO3)	pIC50 (MERTK)	Mer/Flt3 ratio (FLT3 IC50/Mer IC50) (MERTK)
CCCC(C)Nc1ncc2c(NC3CCN(C(=O)C(F)(F)F)CC3)ncc([C@H]3CC[C@H](O)CC3)c2n1 (stereo partly drawn) [Compound 165]	≥ 7.00	≥ 7.00	+++ (a ratio of >100)
O[C@H]1CC[C@H](c2cnc(OC3CCOCC3)c3cnc(Nc4ccc(Cl)cc4)nc32)CC1 [Compound 134, (1r,4r)-4-(2-((4-chlorophenyl)amino)-5-((tetrahydro-2H-pyran-4-yl)oxy)pyrido[4,3-d]pyrimidin-8-yl)cyclohexan-1-ol]	≥ 7.00	≥ 7.00	+ (a ratio of >2.0 and <10)
CCCCNc1ncc2c(=O)n(-c3ccc(CN4CCOCC4)cc3)cc([C@H]3CC[C@H](O)CC3)c2n1 [Compound 101]	6.00 to 7.00	≥ 7.00	+ (a ratio of >2.0 and <10)
CCC[C@@H](C)Nc1ncc2c(=O)n(C3CCNCC3)cc([C@H]3CC[C@H](O)CC3)c2n1 [Compound 152]	≥ 7.00	≥ 7.00	+++ (a ratio of >100)
CCCCNc1ncc2c(OC)ncc([C@H]3CC[C@H](O)CC3)c2n1 [Compound 127]	≥ 7.00	≥ 7.00	+ (a ratio of >2.0 and <10)
C[C@@H](CC(F)(F)F)Nc1ncc2c(O[C@@H]3C[C@H]4CC[C@@H](C3)N4C3COC3)ncc([C@H]3CC[C@H](O)CC3)c2n1 [Compound 437]	≥ 7.00	≥ 7.00	+++ (a ratio of >100)
CCCC(C)Nc1ncc2c(N(C)C3CCN(C)CC3)ncc([C@H]3CC[C@H](O)CC3)c2n1 (stereo partly drawn) [Compound 146]	≥ 7.00	≥ 7.00	++ (a ratio of between 10 and 100)
CCCCC[C@H](C)Nc1ncc2c(OC3CCNCC3)ncc([C@H]3CC[C@H](O)CC3)c2n1 [Compound 130]	≥ 7.00	≥ 7.00	+++ (a ratio of >100)
CCCC(C)Nc1ncc2c(N3CC[C@H](N(C)C)C3)ncc([C@H]3CC[C@H](O)CC3)c2n1 (stereo partly drawn) [Compound 159]	≥ 7.00	≥ 7.00	++ (a ratio of between 10 and 100)
CCCC(C)Nc1ncc2c(=O)n(C3CCN(CCC(=O)N(C)C)CC3)cc([C@H]3CC[C@H](O)CC3)c2n1 (stereo partly drawn) [Compound 151]	≥ 7.00	≥ 7.00	+++ (a ratio of >100)
CCCC(C)Nc1ncc2c(=O)n(C3CCN(CC(=O)N(C)C)CC3)cc([C@H]3CC[C@@H](O)CC3)c2n1 (stereo partly drawn) [Compound 149]	≥ 7.00	≥ 7.00	+++ (a ratio of >100)
CCCC(C)Nc1ncc2c(N(C)C3CCNCC3)ncc([C@H]3CC[C@H](O)CC3)c2n1 (stereo partly drawn) [Compound 179]	≥ 7.00	≥ 7.00	++ (a ratio of between 10 and 100)
CCCC(C)Nc1ncc2c(N3CCC(NC)CC3)ncc([C@H]3CC[C@H](O)CC3)c2n1 (stereo partly drawn) [Compound 155]	≥ 7.00	≥ 7.00	+++ (a ratio of >100)
CCCC(C)Nc1ncc2c(OC[C@H]3CC[C@H](O)CC3)ncc([C@H]3CC[C@H](O)CC3)c2n1 (stereo partly drawn) [Compound 160]	≥ 7.00	≥ 7.00	+++ (a ratio of >100)
CCCC(C)Nc1ncc2c(OC3CCN(S(C)(=O)=O)CC3)ncc([C@H]3CC[C@H](O)CC3)c2n1 (stereo partly drawn) [Compound 143]	≥ 7.00	≥ 7.00	+++ (a ratio of >100)
CCCC(C)Nc1ncc2c(OC[C@H]3CC[C@@H](O)CC3)ncc([C@H]3CC[C@H](O)CC3)c2n1 (stereo partly drawn) [Compound 157]	≥ 7.00	≥ 7.00	++ (a ratio of between 10 and 100)

Other lines, results leading:

pIC50 (TYRO3)	pIC50 (MERTK)	Mer/Flt3 ratio (FLT3 IC50/Mer IC50) (MERTK)	SMILES
≥ 7.00	≥ 7.00	++ (a ratio of between 10 and 100)	CC1CC(Nc2ncc3c(OC4CCNCC4)ncc([C@H]4CC[C@H](O)CC4)c3n2)C1 (stereo partly drawn) [Compound 167]
≥ 7.00	≥ 7.00	+++ (a ratio of >100)	CCCC(C)Nc1ncc2c(=O)n(CCN(C)C)cc([C@H]3CC[C@H](O)CC3)c2n1 (stereo partly drawn) [Compound 169]
≥ 7.00	≥ 7.00	++ (a ratio of between 10 and 100)	CC1CC(Nc2ncc3c(OC4CCNCC4)ncc([C@H]4CC[C@@H](O)CC4)c3n2)C1 (stereo partly drawn) [Compound 168]
≥ 7.00	≥ 7.00	+++ (a ratio of >100)	CC(=O)N[C@H]1C[C@@H](Oc2ncc([C@H]3CC[C@H](O)CC3)c3nc(N[C@@H](C)CC(F)(F)F)ncc23)C1 [Compound 433]
≥ 7.00	≥ 7.00	+++ (a ratio of >100)	CCCC(C)Nc1ncc2c(OC3CCN(CCC(=O)N(C)C)CC3)ncc([C@H]3CC[C@H](O)CC3)c2n1 (stereo partly drawn) [Compound 170]
< 5.00	≥ 7.00	+++ (a ratio of >100)	CCCC(C)Nc1ncc2c(OCCN(C)C)ncc([C@H]3CC[C@H](O)CC3)c2n1 (stereo partly drawn) [Compound 191]
≥ 7.00	≥ 7.00	+++ (a ratio of >100)	CO[C@H]1C[C@@H](Oc2ncc([C@H]3CC[C@H](O)CC3)c3nc(N[C@@H](C)CC(F)(F)F)ncc23)C1 [Compound 434]
≥ 7.00	≥ 7.00	+++ (a ratio of >100)	COC[C@H](C)Nc1ncc2c(O[C@H]3C[C@@H](O)C3(C)C)ncc([C@H]3CC[C@H](O)CC3)c2n1 [Compound 431]
6.00 to 7.00	≥ 7.00	+++ (a ratio of >100)	CCC[C@H](C)Nc1ncc2c(OC3CCN(C)CC3)ncc([C@H]3CC[C@H](O)CC3)c2n1 [Compound 190]
6.00 to 7.00	≥ 7.00	++ (a ratio of between 10 and 100)	CCCC(C)Nc1ncc2c(O[C@@H]3C[C@H]4CC[C@@H](C3)O4)ncc([C@H]3CC[C@H](O)CC3)c2n1 (stereo partly drawn) [Compound 174]
≥ 7.00	≥ 7.00	+++ (a ratio of >100)	CCCC(C)Nc1ncc2c(OC3CCN(CCOC)CC3)ncc([C@H]3CC[C@H](O)CC3)c2n1 (stereo partly drawn) [Compound 173]
≥ 7.00	≥ 7.00	+++ (a ratio of >100)	CCCC(C)Nc1ncc2c(=O)n(CCN3CCOCC3)cc([C@H]3CC[C@H](O)CC3)c2n1 (stereo partly drawn) [Compound 177]
≥ 7.00	≥ 7.00	+++ (a ratio of >100)	C[C@@H](CC(F)(F)F)Nc1ncc2c(O[C@H]3C[C@](C)(O)C3)ncc([C@H]3CC[C@H](O)CC3)c2n1 [Compound 430]
6.00 to 7.00	≥ 7.00	++ (a ratio of between 10 and 100)	CCCC(C)Nc1ncc2c(OCCN3CCOCC3)ncc([C@H]3CC[C@H](O)CC3)c2n1 (stereo partly drawn) [Compound 182]
